A word on the MIC: it is the lowest concentration that inhibits growth of the organism. Read a high MIC as a need for much substance.

The subject of data set [1] is R. oryzae. Put plainly: Survival of guinea pigs infected with R. oryzae and treated with iron chelators. The data set is classed as in vivo. The conditions noted are these: guinea pigs infected with R. oryzae. An excerpt:
The role of iron metabolism in the pathogenesis of mucormycosis allows the possibility of utilizing effective iron chelators for antifungal therapy, including as an adjunctive antifungal therapy.

The subject of data set [2] is R. oryzae. Put plainly: Tissue fungal burden of DKA mice infected with R. oryzae. The data set is classed as in vivo, BALB/c male mice. The settings on record: 3.8×10^3 spores, two doses, brains harvested about 54 h post-infection, P<0.036. The protocol:
(§1) Briefly, for in vivo infection, BALB/c male mice (>20 g) were rendered diabetic with a single i.p. injection of 210 mg/kg streptozotocin in 0.2 ml citrate buffer 10 days prior to fungal challenge. […] Mice were infected through the tail vein with the appropriate inocula of R. oryzae. To confirm the inocula, dilutions were streaked on PDA plates and colonies were counted following a 24 h incubation period at room temperature. The primary efficacy endpoint was time to death. As a secondary endpoint, brain fungal burden (the primary target organ) was determined by homogenization by rolling a pipette on organs placed in Whirl-Pak bags (Nasco, Fort Atkinson, Wis.) containing 2 ml saline. The homogenate was serially diluted in 0.85% saline and then quantitatively cultured on PDA. Values were expressed as log 10 cfu g^−1 tissue. All procedures involving mice were approved by the institutional animal use and care committee, following the National Institutes of Health guidelines for animal housing and care.
(§2) For in vivo infection, BALB/c male mice (>20 g) were rendered diabetic with a single i.p. injection of 210 mg/kg streptozotocin in 0.2 ml citrate buffer 10 days prior to fungal challenge. […] For neutropenic mouse model, mice were injected with a single i.p. dose of 200 mg/kg cyclolphosphamide (Bristol Myer Squibb) 2 days prior to infection with R. oryzae. […] Mice were infected through the tail vein with the appropriate inocula of R. oryzae. To confirm the inocula, dilutions were streaked on PDA plates containing 0.1% triton and colonies were counted following a 24 h incubation period at 37° C. The primary efficacy endpoint was time to death. As a secondary endpoint, brain fungal burden (the primary target organ) was determined by homogenization by rolling a pipette on organs placed in Whirl-Pak™ bags (Nasco®, Fort Atkinson, Wis.) containing 1 ml saline. The homogenate was serially diluted in 0.85% saline and then quantitatively cultured on PDA. Values were expressed as log10 cfu g−1 tissue. Finally, for histopathological analysis, infected organs were collected from mice and fixed in 10% zinc formalin. Fixed tissues were embedded in paraffin, and […] sections were stained with haematoxylin and eosin for light microscopy examination. All procedures involving mice were approved by the institutional animal use and care committee, following the National Institutes of Health guidelines for animal housing and care.

Data set [3] relates to R. oryzae. Put plainly: Survival of diabetic ketoacidotic (DKA) mice infected with R. oryzae. The data set is classed as in vivo, BALB/c male mice. The settings on record: for survival compared to placebo: 4.3×10^3 spores; for efficacy of Def on administration of FeCl3: Def 100 mg/kg qod plus FeCl3 60 mg/kg iv. The procedure: as §1
Deferiprone (Apotex Research Inc.) was dissolved in iron-free water and administered intraperitoneally at 50, 100, or 200 mg/kg qd or qod (every other day). Treatment was begun 24 h post infection and continued for a total of 4 doses. Control groups were treated with the diluent, 5% dextrose water.
Deferiprone is known to form molecular complexes with ferric iron (^3+Fe) in a 1:3 ratio of iron to deferiprone. Based on the known molecular weights of ferric chloride (FeCl3, molecular weight 162.22 g/mol) and deferiprone (molecular weight 139 g/mol), a 60 mg/kg dose of FeCl3 was calculated to result in a significant excess of ^3+Fe vs. a 100 mg/kg dose of deferiprone given to an 18 g mouse: ^3+Fe moles=(0.060 g/kg*0.018 kg [mouse weight]/162.22 g/mol)=6.5×10^−6 mol vs. deferiprone moles=(0.1 g/kg*0.018 kg [mouse weight]/139 g/mol)=1.3×10^−5 mol Ratio=1:2 moles of ^3+Fe to deferiprone, which is more than that required to achieve a saturating 1:3 ratio.
Statistical analysis was performed using the nonparametric log rank test was used to determine differences in survival times of the mice. Differences in tissue fungal burdens in the infected organs were compared by the nonparametric Steel test for multiple comparisons. P values of <0.05 were considered significant.
Deferasirox (Novartis Pharmaceuticals, Basel, Switzerland) was suspended in 0.5% hydroxypropylcellulose (Klucel) and administered by oral gavage at 1, 3, or 10 mg/kg […] (qd) or every other day (qod). Treatment was begun 24 h post infection and continued for a total of 5 or 7 doses. Control groups were treated with the diluent, 5% dextrose water and 0.5% Klucel. In some experiments, a saturating dose of free iron was administered with deferasirox. Deferasirox is known to form molecular complexes with ferric iron (^3+Fe) in a 1:2 ratio of iron to deferasirox. Based on the known molecular weights of ferric chloride (FeCl3, molecular weight 162.22 g/mol) and deferasirox (molecular weight 373.4 g/mol), a 2.8 mg/kg dose of FeCl3 was calculated to result in a significant excess of ^3+Fe vs. a 10 mg/kg dose of deferasirox given to an 18 g mouse: ^3+Fe moles=(0.0028 g/kg*0.018 kg [mouse weight]/162.22 g/mol)=3×10^−7 mol vs. deferasirox moles=(0.01 g/kg*0.018 kg [mouse weight]/373.4 g/mol)=5×10^−7 mol Ratio=1:1.7 moles of ^3+Fe to deferasirox, which is more than that required to achieve a saturating 1:2 ratio.
The nonparametric log rank test was used to determine differences in survival times of the mice. Differences in tissue fungal burdens, splenic lymphocyte frequencies, and whole organ cytokines in the infected organs were compared by the Mann Whitney U test. P values of <0.05 were considered significant.

The subject of data set [4] is R. oryzae. Put plainly: Survival of neutropenic mice infected with R. oryzae. The data set is classed as in vivo. The settings on record: prophylaxis from day −1, Def qod, LAmB qd or both, four doses, placebo 0%. The procedure:
as §2
Two days later, mice were infected via the tail-vein with 2.7×10^3 spores of R. oryzae 99-892.

A further data set relates to R. oryzae 99-880. Put plainly: MIC and MFC of deferiprone and deferoxamine against R. oryzae. The format is cell-based, Rhizopus oryzae. The settings on record: for MFC / MIC: R. oryzae. The protocol: Initially, the in vitro activity of deferiprone against R. oryzae was assessed in this study. Briefly, R. oryzae 99-880 was isolated from a brain abscess of a diabetic patient. The organism was grown on potato dextrose agar (PDA) for 3 days at 37° C. In some experiments, R oryzae was starved for iron by growth on PDA in the presence of 1 mM of ascorbic acid and ferrozine. The sporangiospores were collected in endotoxin free PBS containing 0.01% Tween 80, washed with PBS then counted with hemacytometer to prepare the final inocula. For susceptibility testing, the minimum inhibitory concentration (MIC) and minimum fungicidal concentration (MFC) were determined for Def and deferoxamine by the method of Espinel-Ingroff (J Clin Microbiol 39:954 (2001)).

Another data set deals with invasive mucormycosis. The conditions noted are these: patients treated with deferoxamine; cited from earlier work.
[5] abbreviates: Rhizopus arrhizus, 99880, 24 h, 24 h.
[6] abbreviates: Rhizopus arrhizus, 99880, 48 h, 48 h.

In brackets after ≈: the same amount, converted by molar mass.

In the case of `CCc1c(O)c(=O)ccn1CC` [CP94], in the data set with R. oryzae [1], the “Mean (±SD) Survival Time” value amounted to 8.7 ± 1.0 days.
Consider `Cc1c(O)c(=O)ccn1C` [Deferiprone, 1,2 dimethyl-3-hydroxypyrid-4-1], for which the “Mean (±SD) Survival Time” value with R. oryzae [1] stood at 16.2 ± 4.0 days. In the data set with R. oryzae [2], the “brain fungal burden compared to placebo” value is listed as “reduced brain fungal burden”. The 28-day survival with R. oryzae [3] (DKA mice infected with R. oryzae, treatment from 24 h post infection, 4 doses, LAmB 15 mg/kg qd iv, Def 100 mg/kg qod ip, placebo 0%) worked out at 30%. Besides, the “survival compared to placebo” value is “did not improve survival” in the data set on R. oryzae [3] (DKA mice, 50 mg/kg qd or qod); “did not improve survival” in the data set on R. oryzae [3] (DKA mice, 100 mg/kg qd or 200 mg/kg qd or qod); “improved survival” with R. oryzae [3] (DKA mice, 100 mg/kg qod, 4 doses from 24 h post infection, P=0.027). For the same molecule, the “efficacy of Def on administration of FeCl3” value is “completely abrogated” in the data set with R. oryzae [3] (DKA mice) and “abrogated” with R. oryzae [3] (DKA mice, listed as Def). The “28-day survival compared to placebo” value in the data set on R. oryzae [3] (DKA mice, LAmB 15 mg/kg qd or deferiprone 100 mg/kg qod, P<0.003 Log Rank) is listed as “improved 28-day survival”. In the data set with R. oryzae [4], this molecule had a survival of 22%. The “static or cidal effect against R. oryzae” value in the data set on R. oryzae 99-880 (24 h of incubation) is “static”; with R. oryzae 99-880 (24 h of incubation, listed as deferiprone), “static effect”; in the data set on R. oryzae 99-880 (48 h of incubation), “cidality”; in the data set with R. oryzae 99-880 (48 h of incubation, listed as deferiprone), “cidal effect”. The molecule further gave an MFC against R. oryzae 99-880 (48 h) of 6.25 µg/mL (≈ 44.9 µM). The MIC was 3.12 µg/mL (≈ 22.4 µM) in the data set with R. oryzae 99-880 (setting [5]) and 6.25 µg/mL (≈ 44.9 µM) against R. oryzae 99-880 (setting [6]).
Regarding `CC(=O)N(O)CCCCCNC(=O)CCC(=O)N(O)CCCCCNC(=O)CCC(=O)N(O)CCCCCN` [Deferoxamine], the “Mean (±SD) Survival Time” value in the data set on R. oryzae [1] was 4.8 ± 1.1 days. For the same molecule, the “mortality of invasive mucormycosis” value in the data set with invasive mucormycosis is recorded as over 80%. Besides, the MFC against R. oryzae 99-880 (24 h, listed as deferoxamine) is over 100 µg/mL; against R. oryzae 99-880 (48 h, listed as deferoxamine) it was over 100 µg/mL. Further, the MIC against R. oryzae 99-880 (setting [5]) and with R. oryzae 99-880 (setting [6]) was over 100 µg/mL in each case.
